The results in this text go back to ChEMBL document CHEMBL4706603, “Discovery of VEGFR-2 inhibitors exerting significant anticancer activity against CD44+ and CD133+ cancer stem cells (CSCs): Reversal of TGF-β induced epithelial-mesenchymal transition (EMT) in hepatocellular carcinoma” (Eur J Med Chem, 2020).

For experiment [1], the system named is MCF7. The experiment in a line: Cytotoxicity against human MCF7 cells assessed as reduction in cell viability incubated for 24 hrs by MTT assay. Particulars: for IC50: MCF7, 24 h. In kind it is functional, cell-based. In general terms: Formazan colour is commonly taken as a measure of viable cells.
Experiment [2] relates to HUVEC. Briefly: Induction of apoptosis in human HUVEC assessed as early apoptotic cells at IC50 incubated for 48 hrs by annexin V-FITC and PI staining based flow cytometry (reference value: <1%). The format is functional.
For experiment [3], the system named is HepG2. Briefly: Cytotoxicity against human HepG2 cells assessed as reduction in cell viability incubated for 24 hrs by MTT assay. In kind it is functional, cell-based. Particulars: for IC50: HepG2, 24 h.
Experiment [4] relates to MDA-MB-231. The experiment in a line: Cytotoxicity against human MDA-MB-231 cells assessed as reduction in cell viability incubated for 24 hrs by MTT assay. The format is functional, cell-based. The note with it: for IC50: MDA-MB-231, 24 h.
A short description of experiment [5]: Inhibition of VEGF expression in human HUVEC assessed as mean fluorescence intensity at IC50 incubated for 48 hrs by FITC based flow cytometry analysis (reference value: 53.91+/- 0.95). The format is functional. (In general: A flow cytometer gives signals particle by particle.)
The test system of experiment [6] is HUVEC. The experiment in a line: Induction of apoptosis in human HUVEC assessed as late apoptotic cells at IC50 incubated for 48 hrs by annexin V-FITC and PI staining based flow cytometry. The format is functional.
The test system of experiment [7] is HUVEC. Briefly: Antiproliferative activity against human HUVEC assessed as reduction in cell viability incubated for 24 hrs by MTT assay. The format is functional, cell-based.
Experiment [8] in a line: Inhibition of VEGFR2 expression in human HUVEC assessed as mean fluorescence intensity at IC50 incubated for 48 hrs by FITC based flow cytometry analysis (reference value: 49.24 +/- 0.47). In kind it is functional.
Experiment [9] can be described thus: Inhibition of VEGFR2 expression in human HUVEC assessed as mean fluorescence intensity at IC50 incubated for 48 hrs by fluorescence microscopic analysis (reference value: 1.448 +/- 0.01). In kind it is functional.
In experiment [10] the test system is Chorioallantoic membrane. Briefly: Antiangiogenic activity in chicken fertilized egg chorioallantoic membrane measured upto 72 hrs by CAM assay. The format is functional, tissue-based. Particulars: Gallus gallus, dose 0.01-2 µM, time hrs <=72.
Experiment [11] deals with MDA-MB-231. Briefly: Induction of apoptosis in human MDA-MB-231 cells assessed as early apoptotic cells at IC50 incubated for 72 hrs by Alexa Fluor488-annexin V/PI staining based flow cytometric analysis (Rvb= 0.6 %). In kind it is functional.
Experiment [12] relates to MDA-MB-231. The experiment in a line: Induction of apoptosis in human MDA-MB-231 cells assessed as viable cells at IC50 incubated for 72 hrs by Alexa Fluor488-annexin V/PI staining based flow cytometric analysis (Rvb= 99.4 %). The format is functional.
The subject of experiment [13] is MDA-MB-231. The experiment in a line: Induction of apoptosis in human MDA-MB-231 cells assessed as late apoptotic cells at IC50 incubated for 72 hrs by Alexa Fluor488-annexin V/PI staining based flow cytometric analysis (Rvb= 0.0 %). In kind it is functional.
Experiment [14] concerns MDA-MB-231. The experiment in a line: Induction of apoptosis in human MDA-MB-231 cells assessed as necrotic cells at IC50 incubated for 72 hrs by Alexa Fluor488-annexin V/PI staining based flow cytometric analysis (Rvb= 0.0 %). In kind it is functional.

Broadly, the IC50 is the concentration needed to halve the response being measured. For the molecule `O=C(Nc1ccccc1)Nc1cccc2c(Oc3ccc([N+](=O)[O-])cc3)cccc12`, in experiment [1], the inhibition entry is “Dose-dependent effect” and the IC50 was determined as 953 nM.
Consider `O=C(Nc1cccc(C(F)(F)F)c1)Nc1cccc2c(Oc3ccc([N+](=O)[O-])cc3)cccc12`, for which, in experiment [1], the inhibition entry was “Dose-dependent effect” and the IC50 came out at 953 nM.
As to `CNC(=O)c1cc(Oc2ccc(NC(=O)Nc3ccc(Cl)c(C(F)(F)F)c3)cc2)ccn1.Cc1ccc(S(=O)(=O)O)cc1` [SORAFENIB TOSYLATE], the values for the Activity in [2] and in experiment [6] were 24.5% and 25.6%, respectively. Further, the IC50 in [3] amounted to 215 nM; in experiment [4], 349 nM; in experiment [1] it was 1380 nM; in [7], 1950 nM. The values for the Flu intensity in experiment [5], in [8] and in [9] were 7.14, 6.45 and 1.1, respectively.
On to `O=C(Nc1ccc(Cl)c(C(F)(F)F)c1)Nc1cccc2c(Oc3ccc([N+](=O)[O-])cc3)cccc12`, for which, in experiment [1], the inhibition entry was “Dose-dependent effect” and the IC50 came to 953 nM.
In the case of `COc1ccc(NC(=O)Nc2cccc3c(Oc4ccc([N+](=O)[O-])cc4)cccc23)cc1`, in experiment [1], the inhibition entry was “Dose-dependent effect”.
Take `CC(=O)Nc1ccc(Oc2cccc3c(NC(=O)Nc4ccccc4)cccc23)cc1`: the Activity result in experiment [10] is “Dose-dependent effect”; in experiment [11] it was 46.37%; in [12], 21.2%; in experiment [13] it was 27.4%; in [14] it was 4.5%. Besides, the inhibition result in [3], in [4] and in experiment [1] was “Dose-dependent effect” in each case. Moreover, the values for the IC50 in [3] and in [4] were 258 nM and 1410 nM, respectively.
On to `CC(=O)Nc1ccc(Oc2cccc3c(NC(=O)Nc4ccc(Cl)c(C(F)(F)F)c4)cccc23)cc1`, for which the Activity result in experiment [10] was “Dose-dependent effect”; in [11], 47%; in experiment [12], 20.9%; in [13], 27.5%; in experiment [14] it was 4.6%. Besides, the inhibition result in [3], in [4] and in experiment [1] was “Dose-dependent effect” in each case. For the same molecule, the IC50 in experiment [3] was determined as 258 nM; in experiment [4] it was 1410 nM.
For `O=C(Nc1ccccc1)Nc1cccc2c(O)cccc12`, the inhibition entry in experiment [1] was “Dose-dependent effect”.
As for `O=C(Nc1cccc(C(F)(F)F)c1)Nc1cccc2c(O)cccc12`, in [1], the inhibition result is “Dose-dependent effect” and the IC50 was found to be 953 nM.
